US9707267B2, “Beta-turn peptidomimetic cyclic compounds for treating dry eye” (Mimetogen Pharmaceuticals, Inc., priority 2008, dated 2017)
Several values for one entry are separate records, joined by “and”; a condition that tells them apart may be missing. Equal values may be shown once.

What was measured:
Type in all cases: in vivo
[1] = system: Scopolamine Induced Rat Dry Eye Model; assay: Scopolamine induced rat dry eye model, mucin in tear fluid washings, ELLA (Example 5); conditions: for Tear Mucin: ± SD
Procedure: (§1) Dry eye was induced using scopolamine hydrobromide (Sigma-Aldrich, St. Louis, Mo.), which was continuously and systemically delivered to the animals via an osmotic pump (2ML4 Alzet®; CedarLane, Burlington, Ontario) filled with scopolamine and implanted subcutaneously in the mid dorsal area between the scapulae. Scopolamine was delivered for a twenty-eight day period at 12.5 mg/day, which translated to 30.0±1.5 mg/kg via osmotic pump.
(§2) Treatments for G2-G6 continued daily for seventeen days (up to an including day twenty-one). Thereafter, treatments were terminated but the study continued for another week. During treatment, each animal was anesthetized in an isoflurane chamber. Once asleep, each animal received a 5 μL topical instillation of test article into the lower conjunctival sac of both eyes using a calibrated micropipette. If a clinical endpoint was also being tested, the test article was topically instilled at the end of the testing.
Tear fluid washings were collected from all six groups of rats on day 12 (after 7 daily treatments), day 19 (after 14 daily treatments) and day 28 (after treatment was stopped for 7 days) after instillation of 5 μL sterile saline in the lower conjunctival sac of the anaesthetized animal. The lids were blinked gently to mix the tear film with the saline. The diluted tear fluid was collected with a 5 μL volume glass capillary tube (Drummond Scientific Co, Broomhall, Pa.) by capillary action from the tear meniscus in the lateral canthus. Approximately 4-5 μL were routinely collected. In very dry eyes, a second 5 μL aliquot of saline was instilled before collection.
The concentrations of mucin glycoprotein in the diluted tear fluid washings were determined by an enzyme-linked lectin assay (ELLA). A sample containing 3 μg total protein was diluted to 100 μL in carbonate buffer pH 9.2 and transferred to a 96-well polystyrene microtiter plate (Corning Life Sciences #2592, Fisher Scientific, Nepean, Ontario). A dilution series of bovine submaxillary mucin (Sigma, St. Louis, Mo.) was included on each plate as the standard. The plates were coated by evaporation at 37° C. overnight. After, the plates were washed three times with wash buffer [PBS containing 0.3% BSA, 0.05% Tween-20] then blocked for nonspecific binding with PBS containing 3% BSA and 0.05% Tween-20 at 37° C. for one hour. The wells were rinsed three times in wash buffer, and then incubated in 2 μg/mL biotinylated UEA-1 diluted in wash buffer (Vector Labs, Burlingame, Calif.) at 37° C. for one hour. The wells were rinsed three times in wash buffer, and then incubated in 1 μg/mL HRP-conjugated neutravidin diluted in wash buffer (Pierce, Rockford, Ill.) at 37° C. for one hour. After the wells were rinsed three times in wash buffer the color development was performed with TMB (Promega, Madison, Wis.) and stopped with 0.5N Sulfuric acid. The concentration of mucin in the tear fluid washings was calculated as the ng mucin divided by the volume of tear fluid washing in μL that gave 3 μg total protein.

[2] = system: Scopolamine Induced Rat Dry Eye Model; assay: Scopolamine induced rat dry eye model, Schirmer test (Example 5); conditions: ± SD
Procedure: as §1, §2
Tear production was monitored using the Schirmer test on days 5, 7, 14, 20 and 29 post induction of dry eye. Tear production was measured with Zone-Quick standardized phenol-red threads (FCI Ophthalmics, Marshfield Hills, Mass.) on animals lightly sedated with Isoflurane. The threads were inserted in the lateral lower canthus and left in place for thirty seconds. The length of the stained moistened portion of the thread was measured in millimeters, using the scale provided with the threads to an accuracy of 1 mm.

[3] = system: Scopolamine Induced Rat Dry Eye Model; assay: Scopolamine induced rat dry eye model, tear fluorescein clearance (Example 5); conditions: ± SD
Procedure: as §1, §2
[…] Tear fluorescein clearance was evaluated as described for humans (Alfonso, A. A., et al., “Correlation of Tear Fluorescein Clearance and Schirmer Test Scores with Ocular Irritation Symptoms,” Ophthalmology 106:803-810 (1999), which is incorporated herein by reference in its entirety) and modified for rats (Chen, W., et al., “Keratoconjunctivitis Sicca Modifies Epithelial Stem Cell Proliferation Kinetics in Conjunctiva,” Cornea 26:1101-1106 (2007), which is incorporated herein by reference in its entirety). Animals were lightly sedated with Isoflurane and two microliters of 1% sodium fluorescein (Sigma-Aldrich, St. Louis, Mo.) solution (in sterile saline) was applied to the lower conjunctival sac. The animals awoke within two minutes. After fifteen minutes, the animals were re-sedated and the fluorescein-stained tear fluid was collected with a phenol-red cotton thread (as described for Schirmer testing). The threads were immediately sealed in 1.5 mL polypropylene Eppendorf tubes shielded from light until fluorophotometric analysis. The volume of the collected tear fluid was determined by the length of cotton wetting in mm. After, 100 μl of phosphate-buffered saline (PBS) was added, the tubes were spun at 12,000 rpm for five minutes and the fluid transferred to a 96-well polystyrene microtiter plate (Corning Life Sciences #2592, Fisher Scientific, Nepean, Ontario). A standard well was prepared on each plate, which consisted of a phenol-red thread placed in 100 μl PBS containing 2 μl of 1% sodium fluorescein solution. Fluorescence was measured immediately using a fluorescence microplate reader (FLUOstar OPTIMA, BMG Labtech, Germany) after setting the gain to the standard well. The concentration of fluorescein in tears was calculated from the fluorescence units divided by the mm of cotton wetting (Fu/mm).

[4] = system: Scopolamine Induced Rat Dry Eye Model; assay: Scopolamine induced rat dry eye model, Schirmer test (Example 5); conditions: ± SD; remark: listed apart in the source
[5] = 1.0% topical 1× daily Days 5-21, Day 20
[6] = 2.5% topical 1× daily Days 5-21, Day 7
[7] = 2.5% topical 1× daily Days 5-21, Day 14
[8] = 0.4% group, Day 2, before treatment start (day 5)
[9] = 0.4% topical 1× daily Days 5-21, Day 5 (test before first instillation)
[10] = 0.4% topical 1× daily Days 5-21, Day 7
[11] = 0.4% topical 1× daily Days 5-21, Day 14
[12] = 0.4% topical 1× daily Days 5-21, Day 20
[13] = 1.0% group, Day 2, before treatment start (day 5)
[14] = 1.0% topical 1× daily Days 5-21, Day 5 (test before first instillation)
[15] = 1.0% topical 1× daily Days 5-21, Day 7
[16] = 1.0% topical 1× daily Days 5-21, Day 14
[17] = 2.5% group, Day 2, before treatment start (day 5)
[18] = 2.5% topical 1× daily Days 5-21, Day 5 (test before first instillation)
[19] = 2.5% topical 1× daily Days 5-21, Day 20
[20] = 0.00053% topical 1× daily Days 5-21, Day 5 (test before first instillation)
[21] = 0.00053% topical 1× daily Days 5-21, Day 7
[22] = 0.00053% topical 1× daily Days 5-21, Day 14
[23] = 0.00053% group, Day 2, before treatment start (day 5)
[24] = 0.00053% topical 1× daily Days 5-21, Day 20

## NCCCC[C@@H]1NC(=O)[C@H](CCC(=O)O)NC(=O)c2cc([N+](=O)[O-])ccc2OCCC(C(=O)NCC(=O)O)NC1=O (some centres unmarked) [Compound D3]
[1]; 0.4% topical 1× daily Days 5-21, Day 12
  Tear Mucin: 2.7 ± 2.2 ng/µL
[1]; 0.4% topical 1× daily Days 5-21, Day 19
  Tear Mucin: 6.8 ± 3.2 ng/µL
[1]; 0.4% topical 1× daily Days 5-21, Day 28 (7 days after treatment stopped)
  Tear Mucin: 4.4 ± 3.8 ng/µL
[1]; 1% dose vs untreated and saline control groups
  changes in mucin production at Day 28 as compared to Day 12 (in words): statistically significantly increased mucin production
[1]; 1.0% topical 1× daily Days 5-21, Day 12
  Tear Mucin: 3.3 ng/µL and 3.3 ± 1.9 ng/µL
[1]; 1.0% topical 1× daily Days 5-21, Day 19
  Tear Mucin: 9.1 ng/µL and 9.1 ± 5.1 ng/µL
[1]; 1.0% topical 1× daily Days 5-21, Day 28 (7 days after treatment stopped)
  Tear Mucin: 6.8 ng/µL and 6.8 ± 4.9 ng/µL
[1]; 2.5% topical 1× daily Days 5-21, Day 12
  Tear Mucin: 1.6 ± 0.9 ng/µL
[1]; 2.5% topical 1× daily Days 5-21, Day 19
  Tear Mucin: 6.5 ± 2.4 ng/µL
[1]; 2.5% topical 1× daily Days 5-21, Day 28 (7 days after treatment stopped)
  Tear Mucin: 3.0 ± 1.1 ng/µL
[2]; [5]
  Schirmer's Test: 6.8 ± 0.8 mm
[2]; [6]
  Schirmer's Test: 9.1 ± 1.9 mm
[2]; [7]
  Schirmer's Test: 9.4 ± 1.4 mm
[3]; [8]
  Tear Fluorescein Clearance: 516 ± 305 FU/mm
[3]; 0.4% group, Day −1, baseline, before treatment start (day 5)
  Tear Fluorescein Clearance: 288 ± 247 FU/mm
[3]; [9]
  Tear Fluorescein Clearance: 969 ± 732 FU/mm
[3]; [10]
  Tear Fluorescein Clearance: 296 ± 156 FU/mm
[3]; [11]
  Tear Fluorescein Clearance: 635 ± 599 FU/mm
[3]; [12]
  Tear Fluorescein Clearance: 667 ± 508 FU/mm
[3]; [13]
  Tear Fluorescein Clearance: 880 ± 673 FU/mm
[3]; 1.0% group, Day −1, baseline, before treatment start (day 5)
  Tear Fluorescein Clearance: 575 ± 682 FU/mm
[3]; [14]
  Tear Fluorescein Clearance: 550 ± 369 FU/mm
[3]; [15]
  Tear Fluorescein Clearance: 1098 ± 639 FU/mm
[3]; [16]
  Tear Fluorescein Clearance: 686 ± 306 FU/mm
[3]; [5]
  Tear Fluorescein Clearance: 1067 ± 773 FU/mm
[3]; [17]
  Tear Fluorescein Clearance: 777 ± 592 FU/mm
[3]; 2.5% group, Day −1, baseline, before treatment start (day 5)
  Tear Fluorescein Clearance: 428 ± 312 FU/mm
[3]; [18]
  Tear Fluorescein Clearance: 671 ± 344 FU/mm
[3]; [6]
  Tear Fluorescein Clearance: 561 ± 231 FU/mm
[3]; [7]
  Tear Fluorescein Clearance: 791 ± 235 FU/mm
[3]; [19]
  Tear Fluorescein Clearance: 673 ± 170 FU/mm
[4]; [8]
  Schirmer's Test: 9.6 ± 3.0 mm
[4]; 0.4% group, Day −1, presurgical, before treatment start (day 5)
  Schirmer's Test: 11.9 ± 4.4 mm and 11.9 ± 4.2 mm
[4]; [9]
  Schirmer's Test: 7.9 ± 3.2 mm
[4]; [10]
  Schirmer's Test: 7.9 ± 1.6 mm
[4]; [11]
  Schirmer's Test: 8.6 ± 3.0 mm
[4]; [12]
  Schirmer's Test: 7.2 ± 1.8 mm
[4]; 0.4% topical 1× daily Days 5-21, Day 29 (after treatment stopped)
  Schirmer's Test: 9.4 ± 2.0 mm
[4]; [13]
  Schirmer's Test: 9.8 ± 4.0 mm and 9.8 ± 3.8 mm
[4]; 1.0% group, Day −1, presurgical, before treatment start (day 5)
  Schirmer's Test: 11.3 ± 4.5 mm and 11.3 ± 3.0 mm
[4]; [14]
  Schirmer's Test: 7.9 ± 2.3 mm
[4]; [15]
  Schirmer's Test: 9.5 ± 4.2 mm
[4]; [16]
  Schirmer's Test: 7.3 ± 2.3 mm
[4]; 1.0% topical 1× daily Days 5-21, Day 29 (after treatment stopped)
  Schirmer's Test: 9.0 ± 2.9 mm
[4]; [17]
  Schirmer's Test: 9.8 ± 2.4 mm
[4]; 2.5% group, Day −1, presurgical, before treatment start (day 5)
  Schirmer's Test: 11.5 ± 2.2 mm and 11.5 ± 1.8 mm
[4]; [18]
  Schirmer's Test: 9.6 ± 1.8 mm
[4]; [19]
  Schirmer's Test: 9.1 ± 2.3 mm
[4]; 2.5% topical 1× daily Days 5-21, Day 29 (after treatment stopped)
  Schirmer's Test: 7.7 ± 1.6 mm

## NGF: nerve growth factor (recombinant human), positive control
[1]; 0.00053% topical 1× daily Days 5-21, Day 12
  Tear Mucin: 3.0 ± 2.3 ng/µL
[1]; 0.00053% topical 1× daily Days 5-21, Day 19
  Tear Mucin: 6.8 ± 3.8 ng/µL
[1]; 0.00053% topical 1× daily Days 5-21, Day 28 (7 days after treatment stopped)
  Tear Mucin: 2.4 ± 2.0 ng/µL
[2]; [20]
  Schirmer's Test: 9.2 ± 2.5 mm
[2]; [21]
  Schirmer's Test: 7.8 ± 1.4 mm
[2]; [22]
  Schirmer's Test: 8.6 ± 2.1 mm
[2]; 0.00053% topical 1× daily Days 5-21, Day 29 (after treatment stopped)
  Schirmer's Test: 7.5 ± 2.5 mm
[3]; [23]
  Tear Fluorescein Clearance: 933 ± 824 FU/mm
[3]; 0.00053% group, Day −1, baseline, before treatment start (day 5)
  Tear Fluorescein Clearance: 483 ± 562 FU/mm
[3]; [20]
  Tear Fluorescein Clearance: 804 ± 432 FU/mm
[3]; [21]
  Tear Fluorescein Clearance: 1080 ± 572 FU/mm
[3]; [22]
  Tear Fluorescein Clearance: 1097 ± 1112 FU/mm
[3]; [24]
  Tear Fluorescein Clearance: 861 ± 414 FU/mm
[4]; [23]
  Schirmer's Test: 9.9 ± 4.9 mm and 9.9 ± 4.8 mm
[4]; 0.00053% group, Day −1, presurgical, before treatment start (day 5)
  Schirmer's Test: 11.2 ± 3.7 mm and 11.2 ± 3.2 mm
[4]; [24]
  Schirmer's Test: 7.1 ± 2.4 mm
